Reference: article PMC8958504 (Journal of Medicinal Chemistry, 2022)

System: NRF2-ARE signaling pathway
Test: cells
Assay type: cell-based
Conditions: concentration required to double luciferase activity, AREc32 cells, 24 h

C#CCn1nc(/C=C/c2ccc(OC)cc2)oc1=O [4e, 5-[(E)-2-(4-Methoxyphenyl)ethenyl]-3-(prop-2-yn-1-yl)-1,3,4-oxadiazol-2(3H)-one]
NRF2 (CD, μM): 9.83 ± 0.6 µM
